# Source: patent publication US20150056702A1, “METHOD AND KIT FOR CULTURING STEM CELLS” (China Medical University, priority 2013, published 2015)
# Tested on: ES cells
# Experiment: DNA microarray analysis of ES cells
# Format: cell-based, mouse
# Details: for Amino acid metabolism: % of genes regulated / Amino acid metabolism: D, number of down-regulated genes / Amino acid metabolism: I, number of up-regulated genes / Amino acid metabolism: No. (regulated genes/genes of function) / Apoptosis: % of genes regulated / Apoptosis: D, number of down-regulated genes / Apoptosis: I, number of up-regulated genes / Apoptosis: No. (regulated genes/genes of function) / Calcium signaling pathway: % of genes regulated / Calcium signaling pathway: D, number of down-regulated genes / Calcium signaling pathway: I, number of up-regulated genes / Calcium signaling pathway: No. (regulated genes/genes of pathway) / Cell adhesion molecules: % of genes regulated / Cell adhesion molecules: D, number of down-regulated genes / Cell adhesion molecules: I, number of up-regulated genes / Cell adhesion molecules: No. (regulated genes/genes of function) / Cell communication: % of genes regulated / Cell communication: D, number of down-regulated genes / Cell communication: I, number of up-regulated genes / Cell communication: No. (regulated genes/genes of function) / Cell cycle: % of genes regulated / Cell cycle: D, number of down-regulated genes / Cell cycle: I, number of up-regulated genes / Cell cycle: No. (regulated genes/genes of function) / ECM-receptor interaction: % of genes regulated / ECM-receptor interaction: D, number of down-regulated genes / ECM-receptor interaction: I, number of up-regulated genes / ECM-receptor interaction: No. (regulated genes/genes of pathway) / Insulin signaling pathway: % of genes regulated / Insulin signaling pathway: D, number of down-regulated genes / Insulin signaling pathway: I, number of up-regulated genes / Insulin signaling pathway: No. (regulated genes/genes of pathway) / JAK-STAT signaling pathway: % of genes regulated / JAK-STAT signaling pathway: D, number of down-regulated genes / JAK-STAT signaling pathway: I, number of up-regulated genes / JAK-STAT signaling pathway: No. (regulated genes/genes of pathway) / Lipid metabolism: % of genes regulated / Lipid metabolism: D, number of down-regulated genes / Lipid metabolism: I, number of up-regulated genes / Lipid metabolism: No. (regulated genes/genes of function) / MAPK signaling: % of genes regulated / MAPK signaling: D, number of down-regulated genes / MAPK signaling: I, number of up-regulated genes / MAPK signaling: No. (regulated genes/genes of pathway) / PPAR signaling pathway: % of genes regulated / PPAR signaling pathway: D, number of down-regulated genes / PPAR signaling pathway: I, number of up-regulated genes / PPAR signaling pathway: No. (regulated genes/genes of pathway) / TGF-β signaling pathway: % of genes regulated / TGF-β signaling pathway: D, number of down-regulated genes / TGF-β signaling pathway: I, number of up-regulated genes / TGF-β signaling pathway: No. (regulated genes/genes of pathway) / VEGF signaling pathway: % of genes regulated / VEGF signaling pathway: D, number of down-regulated genes / VEGF signaling pathway: I, number of up-regulated genes / VEGF signaling pathway: No. (regulated genes/genes of pathway) / Wnt signaling pathway: % of genes regulated / Wnt signaling pathway: D, number of down-regulated genes / Wnt signaling pathway: I, number of up-regulated genes / Wnt signaling pathway: No. (regulated genes/genes of pathway) / focal adhesion: % of genes regulated / focal adhesion: D, number of down-regulated genes / focal adhesion: I, number of up-regulated genes / focal adhesion: No. (regulated genes/genes of function) / tight junction: % of genes regulated / tight junction: D, number of down-regulated genes / tight junction: I, number of up-regulated genes / tight junction: No. (regulated genes/genes of function): ES cells, 24 hours
# Protocol: The DNA microarray analysis was used to determine whether the gene expression profiles in various pathways in cells will be affected when the cells were cultured by a BP-containing medium.
# An experimental group medium (BP10 or BP 40), a LIF-containing medium (without BP), and a control group medium (without BP) were used respectively in a 6-well culture dish to culture ES cells with an initial density of 1×10^4 per well for 24 hours. Next, performing total RNA extraction and the obtained RNA was labeled with Cy3. Samples were hybridized to Agilent Mouse G3 Whole Genome Oligo 86×60K microarrays (Agilent) according to the manufacturer's instructions. Arrays were scanned with a Microarray Scanner System and data was analyzed by using a GeneSpring GX software (Agilent).
# According to the related research at present, the Jak-Stat signaling pathway is the most relevant in terms of stem cell self-renewal and pluripotency maintenance.
# [1] = BP10 medium (about 10 μg BP/ml)
# [2] = BP40 medium (about 40 μg BP/ml)
smiles,measurement,setting,value
"CCCC=C1OC(=O)c2ccccc21 [BP, n-butylidenephthalide]",Amino acid metabolism: % of genes regulated,[1],4.3%
same,"Amino acid metabolism: D, number of down-regulated genes",[1],1
same,"Amino acid metabolism: I, number of up-regulated genes",[1],0
same,Amino acid metabolism: No. (regulated genes/genes of function),[1],1/23
same,Apoptosis: % of genes regulated,[1],11.7%
same,"Apoptosis: D, number of down-regulated genes",[1],8
same,"Apoptosis: I, number of up-regulated genes",[1],3
same,Apoptosis: No. (regulated genes/genes of function),[1],11/94
same,Calcium signaling pathway: % of genes regulated,[1],21.9%
same,"Calcium signaling pathway: D, number of down-regulated genes",[1],28
same,"Calcium signaling pathway: I, number of up-regulated genes",[1],4
same,Calcium signaling pathway: No. (regulated genes/genes of pathway),[1],32/146
same,Cell adhesion molecules: % of genes regulated,[1],22%
same,"Cell adhesion molecules: D, number of down-regulated genes",[1],20
same,"Cell adhesion molecules: I, number of up-regulated genes",[1],13
same,Cell adhesion molecules: No. (regulated genes/genes of function),[1],33/150
same,Cell communication: % of genes regulated,[1],21.7%
same,"Cell communication: D, number of down-regulated genes",[1],17
same,"Cell communication: I, number of up-regulated genes",[1],3
same,Cell communication: No. (regulated genes/genes of function),[1],20/92
same,Cell cycle: % of genes regulated,[1],2.5%
same,"Cell cycle: D, number of down-regulated genes",[1],4
same,"Cell cycle: I, number of up-regulated genes",[1],0
same,Cell cycle: No. (regulated genes/genes of function),[1],4/163
same,ECM-receptor interaction: % of genes regulated,[1],28.4%
same,"ECM-receptor interaction: D, number of down-regulated genes",[1],18
same,"ECM-receptor interaction: I, number of up-regulated genes",[1],3
same,ECM-receptor interaction: No. (regulated genes/genes of pathway),[1],21/74
same,Insulin signaling pathway: % of genes regulated,[1],9.8%
same,"Insulin signaling pathway: D, number of down-regulated genes",[1],7
same,"Insulin signaling pathway: I, number of up-regulated genes",[1],3
same,Insulin signaling pathway: No. (regulated genes/genes of pathway),[1],10/102
same,JAK-STAT signaling pathway: % of genes regulated,[1],27.9%
same,"JAK-STAT signaling pathway: D, number of down-regulated genes",[1],30
same,"JAK-STAT signaling pathway: I, number of up-regulated genes",[1],9
same,JAK-STAT signaling pathway: No. (regulated genes/genes of pathway),[1],39/140
same,Lipid metabolism: % of genes regulated,[1],16.5%
same,"Lipid metabolism: D, number of down-regulated genes",[1],15
same,"Lipid metabolism: I, number of up-regulated genes",[1],3
same,Lipid metabolism: No. (regulated genes/genes of function),[1],18/109
same,MAPK signaling: % of genes regulated,[1],10.6%
same,"MAPK signaling: D, number of down-regulated genes",[1],17
same,"MAPK signaling: I, number of up-regulated genes",[1],7
same,MAPK signaling: No. (regulated genes/genes of pathway),[1],24/227
same,PPAR signaling pathway: % of genes regulated,[1],37.8%
same,"PPAR signaling pathway: D, number of down-regulated genes",[1],14
same,"PPAR signaling pathway: I, number of up-regulated genes",[1],14
same,PPAR signaling pathway: No. (regulated genes/genes of pathway),[1],28/74
same,TGF-β signaling pathway: % of genes regulated,[1],11.1%
same,"TGF-β signaling pathway: D, number of down-regulated genes",[1],2
same,"TGF-β signaling pathway: I, number of up-regulated genes",[1],3
same,TGF-β signaling pathway: No. (regulated genes/genes of pathway),[1],5/45
same,VEGF signaling pathway: % of genes regulated,[1],6.5%
same,"VEGF signaling pathway: D, number of down-regulated genes",[1],0
same,"VEGF signaling pathway: I, number of up-regulated genes",[1],2
same,VEGF signaling pathway: No. (regulated genes/genes of pathway),[1],2/31
same,Wnt signaling pathway: % of genes regulated,[1],10.6%
same,"Wnt signaling pathway: D, number of down-regulated genes",[1],5
same,"Wnt signaling pathway: I, number of up-regulated genes",[1],2
same,Wnt signaling pathway: No. (regulated genes/genes of pathway),[1],7/66
same,focal adhesion: % of genes regulated,[1],11%
same,"focal adhesion: D, number of down-regulated genes",[1],16
same,"focal adhesion: I, number of up-regulated genes",[1],3
same,focal adhesion: No. (regulated genes/genes of function),[1],19/173
same,tight junction: % of genes regulated,[1],13.6%
same,"tight junction: D, number of down-regulated genes",[1],7
same,"tight junction: I, number of up-regulated genes",[1],2
same,tight junction: No. (regulated genes/genes of function),[1],9/66
same,Amino acid metabolism: % of genes regulated,[2],8.7%
same,"Amino acid metabolism: D, number of down-regulated genes",[2],2
same,"Amino acid metabolism: I, number of up-regulated genes",[2],0
same,Amino acid metabolism: No. (regulated genes/genes of function),[2],2/23
same,Apoptosis: % of genes regulated,[2],7.4%
same,"Apoptosis: D, number of down-regulated genes",[2],6
same,"Apoptosis: I, number of up-regulated genes",[2],1
same,Apoptosis: No. (regulated genes/genes of function),[2],7/94
same,Calcium signaling pathway: % of genes regulated,[2],21.9%
same,"Calcium signaling pathway: D, number of down-regulated genes",[2],30
same,"Calcium signaling pathway: I, number of up-regulated genes",[2],2
same,Calcium signaling pathway: No. (regulated genes/genes of pathway),[2],32/146
same,Cell adhesion molecules: % of genes regulated,[2],22.7%
same,"Cell adhesion molecules: D, number of down-regulated genes",[2],21
same,"Cell adhesion molecules: I, number of up-regulated genes",[2],13
same,Cell adhesion molecules: No. (regulated genes/genes of function),[2],34/150
same,Cell communication: % of genes regulated,[2],21.7%
same,"Cell communication: D, number of down-regulated genes",[2],18
same,"Cell communication: I, number of up-regulated genes",[2],2
same,Cell communication: No. (regulated genes/genes of function),[2],20/92
same,Cell cycle: % of genes regulated,[2],3.7%
same,"Cell cycle: D, number of down-regulated genes",[2],6
same,"Cell cycle: I, number of up-regulated genes",[2],0
same,Cell cycle: No. (regulated genes/genes of function),[2],6/163
same,ECM-receptor interaction: % of genes regulated,[2],25.7%
same,"ECM-receptor interaction: D, number of down-regulated genes",[2],16
same,"ECM-receptor interaction: I, number of up-regulated genes",[2],3
same,ECM-receptor interaction: No. (regulated genes/genes of pathway),[2],19/74
same,Insulin signaling pathway: % of genes regulated,[2],4.9%
same,"Insulin signaling pathway: D, number of down-regulated genes",[2],3
same,"Insulin signaling pathway: I, number of up-regulated genes",[2],2
same,Insulin signaling pathway: No. (regulated genes/genes of pathway),[2],5/102
same,JAK-STAT signaling pathway: % of genes regulated,[2],25%
same,"JAK-STAT signaling pathway: D, number of down-regulated genes",[2],27
same,"JAK-STAT signaling pathway: I, number of up-regulated genes",[2],8
same,JAK-STAT signaling pathway: No. (regulated genes/genes of pathway),[2],35/140
same,Lipid metabolism: % of genes regulated,[2],12.8%
same,"Lipid metabolism: D, number of down-regulated genes",[2],12
same,"Lipid metabolism: I, number of up-regulated genes",[2],2
same,Lipid metabolism: No. (regulated genes/genes of function),[2],10/109
same,MAPK signaling: % of genes regulated,[2],10.6%
same,"MAPK signaling: D, number of down-regulated genes",[2],19
same,"MAPK signaling: I, number of up-regulated genes",[2],5
same,MAPK signaling: No. (regulated genes/genes of pathway),[2],24/227
same,PPAR signaling pathway: % of genes regulated,[2],36.5%
same,"PPAR signaling pathway: D, number of down-regulated genes",[2],14
same,"PPAR signaling pathway: I, number of up-regulated genes",[2],12
same,PPAR signaling pathway: No. (regulated genes/genes of pathway),[2],27/74
same,TGF-β signaling pathway: % of genes regulated,[2],13.3%
same,"TGF-β signaling pathway: D, number of down-regulated genes",[2],1
same,"TGF-β signaling pathway: I, number of up-regulated genes",[2],5
same,TGF-β signaling pathway: No. (regulated genes/genes of pathway),[2],6/45
same,VEGF signaling pathway: % of genes regulated,[2],0%
same,"VEGF signaling pathway: D, number of down-regulated genes",[2],0
same,"VEGF signaling pathway: I, number of up-regulated genes",[2],0
same,VEGF signaling pathway: No. (regulated genes/genes of pathway),[2],0/31
same,Wnt signaling pathway: % of genes regulated,[2],9.1%
same,"Wnt signaling pathway: D, number of down-regulated genes",[2],6
same,"Wnt signaling pathway: I, number of up-regulated genes",[2],0
same,Wnt signaling pathway: No. (regulated genes/genes of pathway),[2],6/66
same,focal adhesion: % of genes regulated,[2],12.7%
same,"focal adhesion: D, number of down-regulated genes",[2],20
same,"focal adhesion: I, number of up-regulated genes",[2],2
same,focal adhesion: No. (regulated genes/genes of function),[2],22/173
same,tight junction: % of genes regulated,[2],16.7%
same,"tight junction: D, number of down-regulated genes",[2],9
same,"tight junction: I, number of up-regulated genes",[2],2
same,tight junction: No. (regulated genes/genes of function),[2],11/66
same,pathways of the genes significantly regulated,"ES cells cultured with the BP-containing medium, result in words","majorly involved in the PPAR, ECM-receptor interaction, and/or Jak-Stat signaling pathways"
